Calls of active or inactive are those of the source. Unless noted, no cut-off for these calls is given here.
Tests used:
Hexokinase HKDC1 = biological target: T1, Hexokinase HKDC1 (Homo sapiens, UniProt Q2TB90); test: SAR analysis of small molecule inhibitors of hexokinase domain containing I (HKDC1). [Related pubchem assays (depositor defined):AID493160, AID493190]; format: functional
T1 sequence (Q2TB90 whole entry): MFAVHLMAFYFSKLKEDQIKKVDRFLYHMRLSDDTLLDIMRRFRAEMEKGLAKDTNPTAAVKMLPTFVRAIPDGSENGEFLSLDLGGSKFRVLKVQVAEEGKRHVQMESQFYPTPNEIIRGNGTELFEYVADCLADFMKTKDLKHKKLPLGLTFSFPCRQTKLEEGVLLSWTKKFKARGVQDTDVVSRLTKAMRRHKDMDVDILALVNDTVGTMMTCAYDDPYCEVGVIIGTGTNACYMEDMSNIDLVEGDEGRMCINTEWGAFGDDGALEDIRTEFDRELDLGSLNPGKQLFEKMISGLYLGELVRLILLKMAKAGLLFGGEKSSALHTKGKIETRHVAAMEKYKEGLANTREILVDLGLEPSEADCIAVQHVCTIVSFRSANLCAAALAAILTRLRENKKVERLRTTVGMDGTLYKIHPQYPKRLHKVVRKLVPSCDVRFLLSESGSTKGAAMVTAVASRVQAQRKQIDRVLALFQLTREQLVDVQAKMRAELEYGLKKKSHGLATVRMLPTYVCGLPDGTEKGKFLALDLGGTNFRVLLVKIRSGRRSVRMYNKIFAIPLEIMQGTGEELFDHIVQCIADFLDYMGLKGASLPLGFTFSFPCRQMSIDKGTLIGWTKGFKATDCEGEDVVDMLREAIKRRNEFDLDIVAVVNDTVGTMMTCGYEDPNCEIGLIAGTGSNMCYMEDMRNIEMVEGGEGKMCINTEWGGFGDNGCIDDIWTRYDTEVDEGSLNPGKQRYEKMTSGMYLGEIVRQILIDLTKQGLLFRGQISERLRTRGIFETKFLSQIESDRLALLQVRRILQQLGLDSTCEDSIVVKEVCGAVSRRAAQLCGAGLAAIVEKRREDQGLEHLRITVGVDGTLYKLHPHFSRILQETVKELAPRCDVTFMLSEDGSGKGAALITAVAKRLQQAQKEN

Hexokinase-1 = Hexokinase-1 (Homo sapiens, UniProt P19367); test: SAR analysis of small molecule inhibitors of hexokinase domain containing I (HKDC1) in the hexokinase 1 selectivity assay. [Related pubchem assays (depositor defined):AID493160, AID493190]; format: functional
H4 [1] = test: Amyloid Precursor 5' UTR neuroblastoma cell reporter line Measured in Cell-Based System Using Plate Reader - 2078-04_Inhibitor_Dose_DryPowder_Activity. [Related pubchem assays (depositor defined):AID488894]; format: functional; conditions: Homo sapiens
H4 [2] = test: Inhibitors of Prion Protein 5' UTR mRNA Measured in Cell-Based System Using Plate Reader - 2078-01_Inhibitor_Dose_DryPowder_Activity. [Related pubchem assays (depositor defined):AID488894]; format: functional; conditions: Homo sapiens
[3] = biological target: Luciferin 4-monooxygenase (Photinus pyralis, UniProt P08659); test: firefly luciferase enzyme inhibitors, dose response, biochemical, dry powder samples, plate reader (AID 588451)
H4 [4] = test: inhibitors of control reporter signal in H4 cells – cell-based, plate reader, dry powder samples, counter-screen for prion reporter project, dose response (AID 540255); format: functional; conditions: Homo sapiens
[5] = biological target: Short transient receptor potential channel 6 (Mus musculus, UniProt Q61143); test: TRPC6 inhibition potency of TRPC4 inhibitor analogs, dose response, selectivity assay for selective TRPC4 inhibitor project, HEK293 cells, membrane potential dye, IC50 (AID 492987); format: functional, cell-based
[6] = biological target: T2, Short transient receptor potential channel 4 (Mus musculus, UniProt Q9QUQ5); test: TRPC4 inhibitor concentration-response, dose response, cell-based, HEK293 TRPC4/mu-opioid, DAMGO stimulus, Fluo-4 (AID 492994); format: functional
T2 sequence (Q9QUQ5 whole entry): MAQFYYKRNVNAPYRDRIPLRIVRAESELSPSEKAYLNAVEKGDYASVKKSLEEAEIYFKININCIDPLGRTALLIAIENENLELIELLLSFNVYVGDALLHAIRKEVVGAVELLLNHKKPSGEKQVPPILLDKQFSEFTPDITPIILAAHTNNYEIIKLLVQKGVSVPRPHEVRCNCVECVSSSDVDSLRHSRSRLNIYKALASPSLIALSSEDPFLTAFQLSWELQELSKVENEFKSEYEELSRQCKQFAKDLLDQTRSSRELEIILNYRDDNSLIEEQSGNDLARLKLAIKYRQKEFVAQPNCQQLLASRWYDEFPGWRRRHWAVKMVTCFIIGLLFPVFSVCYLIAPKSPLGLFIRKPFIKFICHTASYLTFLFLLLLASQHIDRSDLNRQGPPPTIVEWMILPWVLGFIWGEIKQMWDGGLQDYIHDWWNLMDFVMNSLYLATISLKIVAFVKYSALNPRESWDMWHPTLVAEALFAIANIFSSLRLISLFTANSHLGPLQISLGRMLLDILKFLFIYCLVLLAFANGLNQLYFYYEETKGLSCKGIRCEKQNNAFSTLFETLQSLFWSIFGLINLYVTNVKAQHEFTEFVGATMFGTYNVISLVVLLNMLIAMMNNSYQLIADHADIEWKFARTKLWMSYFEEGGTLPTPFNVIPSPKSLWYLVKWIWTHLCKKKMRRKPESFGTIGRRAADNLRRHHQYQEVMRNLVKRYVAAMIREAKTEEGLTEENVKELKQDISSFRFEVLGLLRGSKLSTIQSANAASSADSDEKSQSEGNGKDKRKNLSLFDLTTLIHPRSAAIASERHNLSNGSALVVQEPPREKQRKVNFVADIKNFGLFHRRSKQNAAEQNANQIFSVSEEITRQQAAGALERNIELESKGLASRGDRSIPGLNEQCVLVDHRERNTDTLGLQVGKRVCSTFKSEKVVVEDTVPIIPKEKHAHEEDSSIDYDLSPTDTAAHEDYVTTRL

[7] = biological target: T2, Short transient receptor potential channel 4; test: TRPC4 inhibition under acetylcholine activation, SAR follow-up, cell-based, acetylcholine stimulus, HEK293 TRPC4, Fluo-4 (AID 492996); format: functional
[8] = biological target: T2, Short transient receptor potential channel 4; test: SAR Analysis for the identification of selective inhibits of the transient receptor potential cation channel C4 (TRPC4): Automated Electrophysiology_2. [Related pubchem assays (depositor defined):AID2256]; format: functional
Phospholipase A2 = Phospholipase A2 (Homo sapiens, UniProt P04054); format: functional;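 note: confirmatory dose-response counterscreen on phospholipase A2, testing hits that came from an ultra-high-throughput screen for ATG4B inhibitors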
Cysteine protease ATG4B = Cysteine protease ATG4B (Homo sapiens, UniProt Q9Y4P1); format: functional;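 note: Fluorescence-based dose-response confirmation assay measuring inhibition of ATG4B activity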
Sequence of Cysteine protease ATG4B (Q9Y4P1 whole entry): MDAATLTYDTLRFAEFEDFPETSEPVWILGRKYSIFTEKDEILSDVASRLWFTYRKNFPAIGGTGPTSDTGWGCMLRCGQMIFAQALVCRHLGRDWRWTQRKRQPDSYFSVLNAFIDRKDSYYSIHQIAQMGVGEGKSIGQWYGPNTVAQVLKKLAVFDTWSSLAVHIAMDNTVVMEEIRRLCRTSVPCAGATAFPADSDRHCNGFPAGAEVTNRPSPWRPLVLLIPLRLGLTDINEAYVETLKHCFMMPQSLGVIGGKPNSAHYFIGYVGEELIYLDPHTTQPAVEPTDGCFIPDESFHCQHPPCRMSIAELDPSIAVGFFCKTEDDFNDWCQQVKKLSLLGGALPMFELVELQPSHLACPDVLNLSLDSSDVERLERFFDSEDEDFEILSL

Sequence of Hexokinase-1 (P19367 whole entry, the tested form may be a part): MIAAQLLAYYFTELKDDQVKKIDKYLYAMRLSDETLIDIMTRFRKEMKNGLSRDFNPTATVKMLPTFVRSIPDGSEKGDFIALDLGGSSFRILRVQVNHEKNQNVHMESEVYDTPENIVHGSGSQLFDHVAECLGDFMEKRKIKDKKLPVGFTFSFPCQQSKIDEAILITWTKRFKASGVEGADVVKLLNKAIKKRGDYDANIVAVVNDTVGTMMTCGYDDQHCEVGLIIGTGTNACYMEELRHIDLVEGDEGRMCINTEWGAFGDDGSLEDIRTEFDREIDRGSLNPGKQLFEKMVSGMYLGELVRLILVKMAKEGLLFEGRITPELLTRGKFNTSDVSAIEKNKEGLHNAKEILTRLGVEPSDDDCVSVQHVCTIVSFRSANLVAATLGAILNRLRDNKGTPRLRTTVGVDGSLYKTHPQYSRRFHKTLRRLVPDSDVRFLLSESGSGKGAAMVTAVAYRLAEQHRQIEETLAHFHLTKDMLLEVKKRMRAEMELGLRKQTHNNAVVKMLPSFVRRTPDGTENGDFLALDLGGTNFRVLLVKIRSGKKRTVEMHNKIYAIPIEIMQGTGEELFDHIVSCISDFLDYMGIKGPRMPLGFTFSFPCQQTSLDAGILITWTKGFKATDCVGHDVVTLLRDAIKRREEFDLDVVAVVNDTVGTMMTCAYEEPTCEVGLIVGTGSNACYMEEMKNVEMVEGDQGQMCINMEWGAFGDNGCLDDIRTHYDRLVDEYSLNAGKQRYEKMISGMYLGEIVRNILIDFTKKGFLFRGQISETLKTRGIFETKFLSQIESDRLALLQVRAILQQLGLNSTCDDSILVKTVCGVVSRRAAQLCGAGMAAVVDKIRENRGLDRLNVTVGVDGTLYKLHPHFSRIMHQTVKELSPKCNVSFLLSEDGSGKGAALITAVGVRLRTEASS
Sequence of Short transient receptor potential channel 6 (Q61143 whole entry): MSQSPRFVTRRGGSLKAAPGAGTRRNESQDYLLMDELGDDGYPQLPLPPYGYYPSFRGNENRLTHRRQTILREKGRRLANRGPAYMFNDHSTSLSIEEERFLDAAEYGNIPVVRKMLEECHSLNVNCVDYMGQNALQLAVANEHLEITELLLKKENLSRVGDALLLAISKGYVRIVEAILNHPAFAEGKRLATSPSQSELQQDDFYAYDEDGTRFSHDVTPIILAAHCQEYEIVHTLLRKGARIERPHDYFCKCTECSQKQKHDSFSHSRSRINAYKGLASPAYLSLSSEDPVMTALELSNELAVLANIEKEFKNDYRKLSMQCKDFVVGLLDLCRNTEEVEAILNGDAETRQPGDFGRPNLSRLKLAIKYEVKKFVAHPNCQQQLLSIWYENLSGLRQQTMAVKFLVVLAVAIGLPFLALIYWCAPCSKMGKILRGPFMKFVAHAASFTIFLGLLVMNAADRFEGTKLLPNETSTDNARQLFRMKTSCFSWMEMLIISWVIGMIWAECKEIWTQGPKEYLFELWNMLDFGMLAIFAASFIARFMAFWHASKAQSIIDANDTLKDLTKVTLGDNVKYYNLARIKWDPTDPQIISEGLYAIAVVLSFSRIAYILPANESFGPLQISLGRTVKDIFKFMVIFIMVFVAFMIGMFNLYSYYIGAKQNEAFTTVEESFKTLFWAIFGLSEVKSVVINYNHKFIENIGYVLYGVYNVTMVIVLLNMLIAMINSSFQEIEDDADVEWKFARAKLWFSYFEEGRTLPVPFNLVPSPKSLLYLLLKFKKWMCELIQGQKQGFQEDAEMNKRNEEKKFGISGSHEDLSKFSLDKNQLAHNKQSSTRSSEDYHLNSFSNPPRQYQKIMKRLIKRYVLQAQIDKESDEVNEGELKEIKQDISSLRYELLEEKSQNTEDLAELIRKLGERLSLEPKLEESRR
Sequence of Luciferin 4-monooxygenase (P08659 whole entry): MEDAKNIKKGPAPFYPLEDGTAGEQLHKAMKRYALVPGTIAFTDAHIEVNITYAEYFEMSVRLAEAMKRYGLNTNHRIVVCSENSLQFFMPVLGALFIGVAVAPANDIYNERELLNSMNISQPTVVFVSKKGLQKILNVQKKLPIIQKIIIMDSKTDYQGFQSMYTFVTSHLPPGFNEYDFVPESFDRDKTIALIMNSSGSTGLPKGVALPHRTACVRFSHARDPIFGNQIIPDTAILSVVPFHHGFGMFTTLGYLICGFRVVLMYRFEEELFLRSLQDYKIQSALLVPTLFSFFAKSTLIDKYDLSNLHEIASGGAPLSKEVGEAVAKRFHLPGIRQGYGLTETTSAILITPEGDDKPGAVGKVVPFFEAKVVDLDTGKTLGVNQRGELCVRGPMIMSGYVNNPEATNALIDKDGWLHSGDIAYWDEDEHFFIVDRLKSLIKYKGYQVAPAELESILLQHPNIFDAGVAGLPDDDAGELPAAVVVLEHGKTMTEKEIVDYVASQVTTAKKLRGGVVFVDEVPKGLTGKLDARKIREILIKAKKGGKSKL
Sequence of Phospholipase A2 (P04054 whole entry): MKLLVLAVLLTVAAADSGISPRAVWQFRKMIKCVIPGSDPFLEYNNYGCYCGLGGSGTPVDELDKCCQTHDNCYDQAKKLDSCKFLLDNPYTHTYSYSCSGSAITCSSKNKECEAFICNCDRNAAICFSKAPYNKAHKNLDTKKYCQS

Cc1ccc(S(=O)(=O)Nc2cc(SCC(=O)O)c(O)c3ccccc23)cc1[N+](=O)[O-]
IC50 (Hexokinase HKDC1): 11.4 µM (active)
IC50 (Hexokinase-1): 59.8 µM (inactive)

CC1CCCCN1c1ncnc2c1cnn2-c1ccc(Cl)cc1 (configuration not stated)
AC50 (H4 [1]): 0.00838 µM (active)
AC50 (H4 [2]): 0.018 µM (active)
AC50 [3]: 4.19 µM (active)
AC50 (H4 [4]): 0.074 µM (active)

Cc1cc(N2CCCCCC2)nc2ccccc12
IC50 [5]: 9.74 µM (active)
IC50 [6]: 1.5 µM (active)
IC50 [7]: 9.55 µM (active)
IC50 [8]: 1.96 µM (active)

O=C(CC1SC(N/N=C/c2cccs2)=NC1=O)Nc1ccc(Cl)c(Cl)c1 (configuration not stated)
IC50 (Phospholipase A2): 4.25 µM (active)
IC50 (Cysteine protease ATG4B): 13.8 µM (active)

Source: ChEMBL document CHEMBL1201862, “PubChem BioAssay data set” (2004)
